Test results from ChEMBL document CHEMBL1142324, “Synthesis and cerebral uptake of 1-(1-[(11)C]methyl-1H-pyrrol-2-yl)-2-phenyl-2-(1-pyrrolidinyl)ethanone, a novel tracer for positron emission tomography studies of monoamine oxidase type A” (J Med Chem, 2008).

Assays:
Format in all cases: ADME, organism-based, Sus scrofa
Conditions in all cases: read-out: Stability
[1] = Metabolic stability in iv dosed pig plasma after 30 seconds
[2] = Metabolic stability in iv dosed pig plasma after 10 mins
[3] = Metabolic stability in iv dosed pig plasma after 30 mins
[4] = Metabolic stability in iv dosed pig plasma after 2 mins
[5] = Metabolic stability in iv dosed pig plasma after 50 mins

| remaining at 0.5 min [1] [%] | remaining at 10 min [2] [%] | remaining at 0.5 h [3] [%] | remaining at 2 min [4] [%] | remaining at 50 min [5] [%] | SMILES |
| --- | --- | --- | --- | --- | --- |
| 99.7 | 68 | 41 | 98 | 24 | [11CH3]n1cccc1C(=O)[C@H](c1ccccc1)N1CCCC1 |
| 99.7 | 68 | 41 | 98 | 24 | [11CH3]n1cccc1C(=O)[C@@H](c1ccccc1)N1CCCC1 |
